Like-named read-outs stand apart in the source and are kept apart here.
What was measured:
Pseudomonas aeruginosa = test: MIC, test tube serial dilution, Pseudomonas aeruginosa; format: cell-based
Klebsiella-Aerobacter [1] = test: MIC, test tube serial dilution, Klebsiella-Aerobacter; format: cell-based
Escherichia coli = test: MIC, test tube serial dilution, Escherichia coli; format: cell-based
Proteus vulgaris = test: MIC, test tube serial dilution, Proteus vulgaris; format: cell-based
Staphylococcus aureus = test: MIC, test tube serial dilution, Staphylococcus aureus; format: cell-based
Klebsiella-Aerobacter [2] = details: in vivo; cited from earlier work
Serratia marcescens = test: MIC, test tube serial dilution, Serratia marcescens; format: cell-based
Providencia = test: MIC, test tube serial dilution, Providencia; format: cell-based
Proteus rettgeri = test: MIC, test tube serial dilution, Proteus rettgeri; format: cell-based
Proteus mirabilis = test: MIC, test tube serial dilution, Proteus mirabilis; format: cell-based
Proteus morganii = test: MIC, test tube serial dilution, Proteus morganii; format: cell-based
Haemophilus influenzae = test: MIC, test tube serial dilution, Haemophilus influenzae; format: cell-based
Streptococcus faecalis = test: MIC, test tube serial dilution, Streptococcus faecalis; format: cell-based

CC1(C)S[C@@H]2[C@H](NC(=O)[C@H](N)c3ccccc3)C(=O)N2[C@H]1C(=O)O [Ampicillin, α-aminobenzylpenicillin, reference compound]
MIC (Pseudomonas aeruginosa; Table 3, strain Walter): 200 U/ml | MIC (Pseudomonas aeruginosa; strain Bonn, 24 hours, 37°C): 200 U/ml | MIC (Pseudomonas aeruginosa; strain Walter, 24 hours, 37°C): 200 U/ml | MIC (Klebsiella-Aerobacter [1]; Table 3, strain 63): 100-200 U/ml | MIC (Klebsiella-Aerobacter [1]; Table 3, strain K 10): 100-200 U/ml | MIC (Escherichia coli; Table 3, strain 183/58): 200 U/ml | MIC (Escherichia coli; Table 3, strain A 261): > 400 U/ml | MIC (Escherichia coli; Table 3, strain C 165): 6 U/ml | MIC (Escherichia coli; strain 183/58, 24 hours, 37°C): 200 U/ml | MIC (Escherichia coli; strain A 261, 24 hours, 37°C): > 400 U/ml | MIC (Proteus vulgaris; Table 3, strain 1017): 400 U/ml | MIC (Proteus vulgaris; strain 1017, 24 hours, 37°C): 400 U/ml | MIC (Staphylococcus aureus; Table 3, strain 133): < 1 U/ml | effectiveness against infections (Klebsiella-Aerobacter [2]): not able to combat infections

CC1(C)S[C@@H]2[C@H](NC(=O)C(C(=O)O)c3ccccc3)C(=O)N2[C@H]1C(=O)O (stereo partly drawn) [Carbenicillin, reference compound]
MIC (Pseudomonas aeruginosa; strain A): 25 U/ml | MIC (Pseudomonas aeruginosa; strain Bonn, 24 hours, 37°C): 200 U/ml | MIC (Pseudomonas aeruginosa; strain E 27 500): 100 U/ml | MIC (Pseudomonas aeruginosa; strain F 41, 24 hours, 37°C): 100 U/ml | MIC (Pseudomonas aeruginosa; strain V 10 797): 50 U/ml | MIC (Pseudomonas aeruginosa; strain V 10 818): 100 U/ml | MIC (Pseudomonas aeruginosa; strain V 10 887): 100 U/ml | MIC (Pseudomonas aeruginosa; strain V 10 900): 50 U/ml | MIC (Pseudomonas aeruginosa; strain Walter, 24 hours, 37°C): 100 U/ml | MIC (Klebsiella-Aerobacter [1]; aerogenes 418): 400 U/ml | MIC (Klebsiella-Aerobacter [1]; strain 60): 100 U/ml | MIC (Klebsiella-Aerobacter [1]; strain 62): 100 U/ml | MIC (Klebsiella-Aerobacter [1]; strain 63, 24 hours, 37°C): 400 U/ml | MIC (Klebsiella-Aerobacter [1]; strain 69): > 400 U/ml | MIC (Klebsiella-Aerobacter [1]; strain 70): 400 U/ml | MIC (Klebsiella-Aerobacter [1]; strain 75): > 400 U/ml | MIC (Klebsiella-Aerobacter [1]; strain 1852): > 400 U/ml | MIC (Klebsiella-Aerobacter [1]; strain 1871): 400 U/ml | MIC (Klebsiella-Aerobacter [1]; strain K 10, 24 hours, 37°C): > 400 U/ml | MIC (Escherichia coli; strain 14, 24 hours, 37°C): 1.6 U/ml | MIC (Escherichia coli; strain 1465): > 400 U/ml | MIC (Escherichia coli; strain A 261, 24 hours, 37°C): 400 U/ml | MIC (Escherichia coli; strain B 94): 1.6 U/ml | MIC (Escherichia coli; strain N): 6 U/ml | MIC (Escherichia coli; strain S): 400 U/ml | MIC (Escherichia coli; strain T 7): > 400 U/ml | MIC (Escherichia coli; strain T 20/2): > 400 U/ml | MIC (Serratia marcescens; strain 3): 400 U/ml | MIC (Serratia marcescens; strain 7): 100 U/ml | MIC (Serratia marcescens; strain 9): 6 U/ml | MIC (Serratia marcescens; strain 13): 6 U/ml | MIC (Serratia marcescens; strain K): 6 U/ml | MIC (Providencia; strain 930): 6 U/ml | MIC (Proteus rettgeri; Sp.): 1.6 U/ml | MIC (Proteus rettgeri; strain 1 050): > 400 U/ml | MIC (Proteus rettgeri; strain 824): > 400 U/ml | MIC (Proteus mirabilis; Sp.): 1.6 U/ml | MIC (Proteus mirabilis; strain 605): 400 U/ml | MIC (Proteus mirabilis; strain G.): 1.6 U/ml | MIC (Proteus morganii; strain 1 102): > 800 U/ml | MIC (Proteus morganii; strain 932, 24 hours, 37°C): 6 U/ml | MIC (Proteus vulgaris; strain 3 400): 50 U/ml | MIC (Haemophilus influenzae; strain 2 689): 1.6 U/ml | MIC (Haemophilus influenzae; strain 2 718): 0.8 U/ml | MIC (Haemophilus influenzae; strain 2 786): 1.6 U/ml | MIC (Haemophilus influenzae; strain 2 788): < 0.4 U/ml | MIC (Streptococcus faecalis; strain 8 698): 100 U/ml | MIC (Streptococcus faecalis; strain 8 709): 200 U/ml | MIC (Streptococcus faecalis; strain 8 711): 50 U/ml | MIC (Staphylococcus aureus; strain P 209): < 0.8 U/ml | MIC (Staphylococcus aureus; strain SG 511): < 0.8 U/ml | effectiveness against infections (Klebsiella-Aerobacter [2]): only effective in man in the case of infections caused by Klebsiella-Aerobacter if administered in a continuous high dosage

CC1(C)S[C@@H]2[C@H](NC(=O)[C@H](NC(=O)N3CCN(S(C)(=O)=O)C3=O)c3ccccc3)C(=O)N2[C@H]1C(=O)O [Example 4, Sodium D(-)-α-[(3-methylsulphonyl-imidazolidin-2-on-1-yl)-carbonylamino]-benzylpencillin]
MIC (Pseudomonas aeruginosa; strain A): 12.5 U/ml | MIC (Pseudomonas aeruginosa; strain Bonn, 24 hours, 37°C): 16 - 32 U/ml | MIC (Pseudomonas aeruginosa; strain E 27 500): 12.5 U/ml | MIC (Pseudomonas aeruginosa; strain V 10 797): 12.5 U/ml | MIC (Pseudomonas aeruginosa; strain V 10 818): 25 U/ml | MIC (Pseudomonas aeruginosa; strain V 10 887): 12.5 U/ml | MIC (Pseudomonas aeruginosa; strain V 10 900): 12.5 U/ml | MIC (Pseudomonas aeruginosa; strain Walter, 24 hours, 37°C): 4-16 U/ml | MIC (Klebsiella-Aerobacter [1]): < 0.8 U/ml | MIC (Klebsiella-Aerobacter [1]; aerogenes 418): 3 U/ml | MIC (Klebsiella-Aerobacter [1]; strain 62): 1.6 U/ml | MIC (Klebsiella-Aerobacter [1]; strain 63, 24 hours, 37°C): 4 - 16 U/ml | MIC (Klebsiella-Aerobacter [1]; strain 69): 1.6 U/ml | MIC (Klebsiella-Aerobacter [1]; strain 70): 3 U/ml | MIC (Klebsiella-Aerobacter [1]; strain 75): 6 U/ml | MIC (Klebsiella-Aerobacter [1]; strain 1852): > 400 U/ml | MIC (Klebsiella-Aerobacter [1]; strain 1871): 6 U/ml | MIC (Klebsiella-Aerobacter [1]; strain K 10, 24 hours, 37°C): 4 - 16 U/ml | MIC (Escherichia coli; strain 26/6): < 0.8 U/ml | MIC (Escherichia coli; strain 55 B 5): < 0.8 U/ml | MIC (Escherichia coli; strain 183/58, 24 hours, 37°C): 1 - 4 U/ml | MIC (Escherichia coli; strain 1465): > 400 U/ml | MIC (Escherichia coli; strain A 261, 24 hours, 37°C): 32 - 64 U/ml | MIC (Escherichia coli; strain B): < 0.8 U/ml | MIC (Escherichia coli; strain B 94): < 0.8 U/ml | MIC (Escherichia coli; strain C 165, 24 hours, 37°C): 1 - 4 U/ml | MIC (Escherichia coli; strain N): 1.6 U/ml | MIC (Escherichia coli; strain S): 32 U/ml | MIC (Escherichia coli; strain T 7): > 400 U/ml | MIC (Escherichia coli; strain T 20/2): > 400 U/ml | MIC (Serratia marcescens; strain 2): 1.6 U/ml | MIC (Serratia marcescens; strain 3): 12.5 U/ml | MIC (Serratia marcescens; strain 4): 1.6 U/ml | MIC (Serratia marcescens; strain 6): 1.6 U/ml | MIC (Serratia marcescens; strain 7): 1.6 U/ml | MIC (Serratia marcescens; strain 9): < 0.8 U/ml | MIC (Serratia marcescens; strain 13): < 0.8 U/ml | MIC (Serratia marcescens; strain K): < 0.8 U/ml | MIC (Providencia; strain 930): < 0.8 U/ml | MIC (Providencia; strain 933): 12.5 U/ml | MIC (Providencia; strain 945): < 0.8 U/ml | MIC (Proteus rettgeri; Sp.): 0.8 U/ml | MIC (Proteus rettgeri; strain 1 050): > 400 U/ml | MIC (Proteus rettgeri; strain 824): > 400 U/ml | MIC (Proteus mirabilis; Sp.): 1.6 U/ml | MIC (Proteus mirabilis; strain 1 235): 1.6 U/ml | MIC (Proteus mirabilis; strain 605): 3 U/ml | MIC (Proteus mirabilis; strain G.): < 0.4 U/ml | MIC (Proteus morganii; Sp.): 3 U/ml | MIC (Proteus morganii; strain 1 102): 200 U/ml | MIC (Proteus vulgaris; strain 3 400): 6 U/ml | MIC (Proteus vulgaris; strain 1017, 24 hours, 37°C): 1.6 U/ml | MIC (Haemophilus influenzae; strain 2 684): 0.1 U/ml | MIC (Haemophilus influenzae; strain 2 689): 0.25 U/ml | MIC (Haemophilus influenzae; strain 2 718): 0.1 U/ml | MIC (Haemophilus influenzae; strain 2 786): 0.06 U/ml | MIC (Haemophilus influenzae; strain 2 788): 0.5 U/ml | MIC (Streptococcus faecalis; ATCC 9790, 24 hours, 37°C): 16-32 U/ml | MIC (Streptococcus faecalis; strain 8 698): 1.6 U/ml | MIC (Streptococcus faecalis; strain 8 709): 12.5 U/ml | MIC (Streptococcus faecalis; strain 8 711): 3 U/ml | MIC (Staphylococcus aureus): 200 U/ml | MIC (Staphylococcus aureus; strain 1756 (BRL 1 756), 24 hours, 37°C): 64-256 U/ml | MIC (Staphylococcus aureus; strain P 209): < 0.8 U/ml | MIC (Staphylococcus aureus; strain SG 511): < 0.8 U/ml

COC(=O)N1CCN(C(=O)NC(C(=O)N[C@@H]2C(=O)N3[C@@H]2SC(C)(C)[C@@H]3C(=O)O)c2ccc(Cl)cc2)C1=O (stereo partly drawn) [Penicillin No. 19 (Table 3), Sodium D,L-α-[(3-methoxycarbonyl-imidazolidin-2-on-1-yl)-carbonylamino]-4-chlorobenzylpenicillin]
MIC (Pseudomonas aeruginosa; Table 3, strain F 41): 64 U/ml | MIC (Pseudomonas aeruginosa; Table 3, strain Walter): 64 U/ml | MIC (Klebsiella-Aerobacter [1]; Table 3, strain 63): 4 U/ml | MIC (Klebsiella-Aerobacter [1]; Table 3, strain K 10): 32 U/ml | MIC (Escherichia coli; Table 3, strain 14): 4 U/ml | MIC (Escherichia coli; Table 3, strain 183/58): 16 U/ml | MIC (Escherichia coli; Table 3, strain A 261): > 256 U/ml | MIC (Escherichia coli; Table 3, strain C 165): 8 U/ml | MIC (Proteus morganii; Table 3, strain 932): 4 U/ml | MIC (Proteus vulgaris; Table 3, strain 1017): 32 U/ml | MIC (Streptococcus faecalis; unit assumed): 32 µg/mL | MIC (Staphylococcus aureus; Table 3, strain 1756E): 128 U/ml

COC(=O)N1CCN(C(=O)NC(C(=O)N[C@@H]2C(=O)N3[C@@H]2SC(C)(C)[C@@H]3C(=O)O)c2cccs2)C1=O (stereo partly drawn) [Penicillin No. 20 (Table 3), Sodium D,L-α-[(3-methoxycarbonyl-imidazolidin-2-on-1-yl)-carbonylamino]-α-thienyl(2)-methylpenicillin]
MIC (Pseudomonas aeruginosa; Table 3, strain F 41): 64 U/ml | MIC (Pseudomonas aeruginosa; Table 3, strain Walter): 32 U/ml | MIC (Klebsiella-Aerobacter [1]; Table 3, strain 63): 32 U/ml | MIC (Klebsiella-Aerobacter [1]; Table 3, strain K 10): 32 U/ml | MIC (Escherichia coli; Table 3, strain 14): 4 U/ml | MIC (Escherichia coli; Table 3, strain 183/58): 8 U/ml | MIC (Escherichia coli; Table 3, strain A 261): > 256 U/ml | MIC (Escherichia coli; Table 3, strain C 165): 8 U/ml | MIC (Proteus morganii; Table 3, strain 932): 32 U/ml | MIC (Proteus vulgaris; Table 3, strain 1017): 8 U/ml | MIC (Streptococcus faecalis; Table 3, ATCC 9790): 16 U/ml | MIC (Staphylococcus aureus; Table 3, strain 133): < 1 U/ml | MIC (Staphylococcus aureus; Table 3, strain 1756E): 64 U/ml

From patent US3983105A, “Penicillins” (Bayer Aktiengesellschaft, priority 1971, dated 1976)
